The results in this text go back to ChEMBL document CHEMBL5726172, “Spiro-cyclic amine derivatives as S1P modulators” (2019).

This assay has as its target Sphingosine 1-phosphate receptor 5 (Homo sapiens, UniProt Q9H228). As to the kind of experiment: In Vitro Functional Activity (Agonism) on Human S1P5 Receptors: The CHO-human-S1P5-Aeqorin assay was bought from Euroscreen, Brussels (Euroscreen, Technical dossier, Human Lysophospholid S1P5 (Edg8) receptor, DNA clone and CHO AequoScreen™ recombinant cell-line, catalog no: ES-593-A, September 2006). Human-S1P5-Aequorin cells express mitochondrial targeted apo-Aequorin. Cells have to be loaded with coelanterazine, in order to reconstitute active Aequorin. After binding of agonists to the human S1P5 receptor the intracellular calcium concentration increases and binding of calcium to the apo-Aequorin/coelenterazine complex leads to an oxidation reaction of coelenterazine, which results in the production of apo-Aequorin, coelenteramide, CO2 and light ([…]max 469 nm). This luminescent response is dependent on the agonist concentration. Luminescence is measured using the MicroBeta Jet (Perkin Elmer). Agonistic effects of compounds are expressed as pEC50. Compounds were tested at a 10 points half log concentration range, and 3 independent experiments were performed in single point's measurements. It counts as cell-based. A general note: Calcium assays in cells follow changes in intracellular calcium, usually with a dye or a luminescent sensor.

Structures are written as SMILES.

Chain of Sphingosine 1-phosphate receptor 5 (Q9H228 whole entry): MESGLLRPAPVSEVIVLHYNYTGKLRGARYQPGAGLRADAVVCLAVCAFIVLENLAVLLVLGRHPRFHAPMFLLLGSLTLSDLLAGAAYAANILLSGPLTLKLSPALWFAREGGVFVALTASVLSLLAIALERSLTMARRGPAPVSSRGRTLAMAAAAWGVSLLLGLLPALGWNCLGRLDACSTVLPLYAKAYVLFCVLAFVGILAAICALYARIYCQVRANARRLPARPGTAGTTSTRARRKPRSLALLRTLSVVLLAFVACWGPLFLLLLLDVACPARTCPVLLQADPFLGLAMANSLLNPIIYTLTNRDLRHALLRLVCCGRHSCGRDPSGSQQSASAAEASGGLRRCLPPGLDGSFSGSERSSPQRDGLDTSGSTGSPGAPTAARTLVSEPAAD

In the case of `CC(C)c1cccc(F)c1COc1ccc2c(c1)OCC21CCN(CCC(=O)O)CC1`, the EC50 (in general, the midpoint of the concentration-response curve) is 50.1 nM.

Turning to `O=C(O)CCN1CCCC2(COc3cc(OCc4c(Cl)cccc4C(F)(F)F)ccc32)C1` (configuration not stated), the EC50 is 50.1 nM.
